Experimental data as given in PubChem BioAssay (NCI).
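All cell lines were grown in 96-well plates and treated with compound for 48 hours. The concentration for full growth arrest is given as TGI.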 Where a SMILES comes first, the peptide text is derived from it. The star is where a group is joined. Boc = CC(C)(C)OC(=O)*

What was measured:
Assay in all cases: NCI-60 cell line screen, 48 h
OVCAR-3 ovarian = system: OVCAR-3 ovarian
OVCAR-5 ovarian = system: OVCAR-5 ovarian
786-0 renal = system: 786-0 renal
SK-MEL-5 melanoma = system: SK-MEL-5 melanoma
SF-539 CNS = system: SF-539 CNS
PC-3 prostate = system: PC-3 prostate
OVCAR-4 ovarian = system: OVCAR-4 ovarian
MDA-N = system: MDA-N
NCI/ADR-RES ovarian = system: NCI/ADR-RES ovarian
DU-145 prostate = system: DU-145 prostate
RPMI-8226 leukemia = system: RPMI-8226 leukemia
HOP-62 NSCLC = system: HOP-62 NSCLC
SK-MEL-28 melanoma = system: SK-MEL-28 melanoma
SNB-75 CNS = system: SNB-75 CNS
T-47D breast = system: T-47D breast
LOX IMVI melanoma = system: LOX IMVI melanoma
NCI-H23 lung = system: NCI-H23 lung
COLO 205 colon = system: COLO 205 colon
IGROV1 ovarian = system: IGROV1 ovarian

Row | Compound | TGI (OVCAR-3 ovarian) | TGI (OVCAR-5 ovarian) | TGI (786-0 renal) | TGI (SK-MEL-5 melanoma) | TGI (SF-539 CNS) | TGI (PC-3 prostate) | TGI (OVCAR-4 ovarian) | TGI (MDA-N) | TGI (NCI/ADR-RES ovarian) | TGI (DU-145 prostate) | TGI (RPMI-8226 leukemia) | TGI (HOP-62 NSCLC) | TGI (SK-MEL-28 melanoma) | TGI (SNB-75 CNS) | TGI (T-47D breast) | TGI (LOX IMVI melanoma) | TGI (NCI-H23 lung) | TGI (COLO 205 colon) | TGI (IGROV1 ovarian)
1 | CC(=O)OC12c3ccccc3C(c3ccccc31)C1C(=O)N(Nc3ccccc3)C(=O)C12 (stereo not given) | > 100 µM | > 100 µM | > 100 µM | > 100 µM | > 100 µM | > 100 µM | > 100 µM | > 100 µM | > 100 µM | > 100 µM | > 100 µM | > 100 µM | > 100 µM | > 100 µM | > 100 µM | > 100 µM | > 100 µM | > 100 µM | > 100 µM
2 | c1ccc(C2C3=C(c4ccccc4CC3)N3c4cc5nc6ccccc6nc5cc4NC34CCCCC24)cc1 (stereo not given) | > 10 µM | > 10 µM | > 10 µM | > 10 µM | > 10 µM | > 10 µM | > 10 µM | > 10 µM | > 10 µM | > 10 µM | > 9.17 µM | > 10 µM | > 10 µM | > 10 µM | > 10 µM | > 10 µM | > 10 µM | > 10 µM | > 10 µM
3 | Brc1ccc(N=C/C=C(\Nc2ccc(Br)cc2)C23CC4CC(CC(C4)C2)C3)cc1 | 28.9 µM | > 67.8 µM | 28.9 µM | 26.6 µM | 51.8 µM | 41 µM | 31.3 µM | 34.9 µM | > 84.9 µM | 35.4 µM | > 100 µM | 43.6 µM | > 59.5 µM | 35.5 µM | 43.9 µM | 21.8 µM | > 65.8 µM | 47.3 µM | 28 µM
4 | Cc1ccc(S(=O)(=O)NN=C2C(C)CC(C(C)(C)C)CC2C)cc1 (stereo not given) | 31.8 µM | 31.5 µM | 32.9 µM | 31.3 µM | > 100 µM | 37.9 µM | 29.1 µM | 40.9 µM | 82.1 µM | 39.1 µM | 52.8 µM | 31.6 µM | 36.6 µM | 37.8 µM | 50.7 µM | 33.2 µM | 56.5 µM | 34.5 µM | > 100 µM
5 | C/C(=N/NC(=S)Nc1ccccc1C)c1ccccn1 | 9.47 µM | 10.7 µM | 18 µM | 2.31 µM | 8.15 µM | 19.5 µM | 18.5 µM | 20.1 µM | 8.62 µM | 11.3 µM | > 55.8 µM | 8.99 µM | 23.1 µM | 16.3 µM | 3.49 µM | 15.7 µM | 27.2 µM | 2.56 µM | 12.1 µM
6 | O=C(CC(O)(C(F)(F)Cl)C(F)(F)Cl)CC(O)(C(F)(F)Cl)C(F)(F)Cl | > 10 µM | – | > 10 µM | 4.62 µM | > 10 µM | 8.2 µM | 9.67 µM | > 10 µM | > 10 µM | > 10 µM | 4.84 µM | 5.11 µM | > 10 µM | 9.7 µM | 6.6 µM | > 10 µM | 4.29 µM | 3.07 µM | > 10 µM
7 | Cc1cc(C)c2c(=O)cc(-c3ccccc3)[nH]c2c1 | 25.6 µM | > 92.3 µM | 11.4 µM | 30.6 µM | 8.11 µM | > 93.2 µM | 31 µM | 3.17 µM | 34.3 µM | 98.4 µM | 22.8 µM | 23.7 µM | 35.3 µM | 19.3 µM | > 76.2 µM | 41.2 µM | 16.5 µM | > 52 µM | 35.4 µM
8 | Oc1c(Nc2ccccc2)cc2c3c1N=NC=3CCN=2 | > 100 µM | > 100 µM | > 100 µM | 33.1 µM | > 100 µM | > 100 µM | > 100 µM | 31.7 µM | > 100 µM | > 100 µM | > 100 µM | > 100 µM | > 100 µM | > 100 µM | > 100 µM | 46.6 µM | > 100 µM | > 100 µM | > 100 µM
9 | O=c1cc(CN2CCCCC2)[nH]c2c1ccc1nc(CN3CCCCC3)cc(=O)n12 | > 100 µM | > 100 µM | > 100 µM | > 100 µM | > 100 µM | > 100 µM | > 100 µM | > 100 µM | > 100 µM | > 100 µM | > 100 µM | > 100 µM | > 100 µM | > 100 µM | > 100 µM | > 100 µM | > 100 µM | > 100 µM | > 100 µM
10 | CNC(=O)CNC(=O)C(NC(=O)CNC(=O)C1CCCN1C(=O)C(C)NC(=O)C(NC(=O)OC(C)(C)C)C(C)C)C(C)C (stereo not given) (Boc-VAPGVG-NHMe; configuration not given here) | > 100 µM | > 100 µM | > 100 µM | – | > 100 µM | > 100 µM | > 100 µM | > 100 µM | > 100 µM | > 100 µM | > 100 µM | > 100 µM | > 100 µM | > 100 µM | > 100 µM | > 100 µM | > 100 µM | > 100 µM | > 100 µM
11 | COc1cc(C)cc(C(=O)OCc2ccccc2)c1C1=C(Cl)C(=O)C(Cl)=CC1=O | > 10 µM | > 10 µM | > 10 µM | > 10 µM | > 10 µM | > 10 µM | > 9 µM | > 10 µM | > 10 µM | > 10 µM | > 10 µM | > 10 µM | > 10 µM | > 10 µM | > 10 µM | > 10 µM | > 10 µM | > 10 µM | > 10 µM
12 | CCOC(=O)C(=NN(C)c1ncccc1N)C(=O)OCC | > 100 µM | – | 87.2 µM | > 100 µM | 69.8 µM | > 100 µM | > 100 µM | > 100 µM | > 100 µM | > 100 µM | > 100 µM | > 100 µM | > 100 µM | > 100 µM | 62.7 µM | 38.1 µM | > 100 µM | 29 µM | > 100 µM
